From patent publication US5807986A, “Methods of making and screening betide libraries” (The Salk Institute For Biological Studies, priority 1995, dated 1998)
Several values for one entry are separate records, joined by “and”; a condition that tells them apart may be missing. Equal values may be shown once. Where a SMILES comes first, the peptide text is derived from it. [ ]: non-standard residue; d: D form. dPhe(4-NH2) = Nc1ccc(C[C@@H](N)C(=O)O)cc1; dPhe(4-Cl) = N[C@H](Cc1ccc(Cl)cc1)C(=O)O; Phe(4-NH2) = Nc1ccc(C[C@H](N)C(=O)O)cc1; d2Nal = N[C@H](Cc1ccc2ccccc2c1)C(=O)O; Lys(iPr) = CC(C)NCCCC[C@H](N)C(=O)O; d3Pal = N[C@H](Cc1cccnc1)C(=O)O

How the values were obtained:
[1] = examination of rats for tolerance and gelling at the point of injection; assay type: in vivo; conditions: rats of the anti-ovulation test, injected in bacteriostatic water
Procedure: (§1) The betide is assayed in vivo to determine its effectiveness to prevent ovulation in female rats. In this test, a specified number of mature female Sprague-Dawley rats, e.g. five to ten, each having a body weight from 225 to 250 grams, are injected with a specified microgram dosage of the betide in bacteriostatic water at about noon on the day of proestrus. Proestrus is the […] of ovulation. A separate female rat group is used as a control to which the peptide is not administered. Each of the control female rats ovulates on the evening of proestrus; the number of the rats treated which ovulate is recorded. […] At a dosage of 1.0 microgram for isomer (1), all ovulate while for 1 μg of isomer (2), only 6 out of 14 rats ovulate and for 0.5 μg, 3 out of 4 rats ovulate. Isomer (2) is hereinafter referred to as Betide No. 1.

[2] = hydrophilicity by retention on RP-HPLC; assay type: physicochemical
mSSTR2 = target: T1, mSSTR2 (Mus musculus, UniProt P30875); assay: inhibition of radioligand binding to cloned SRIF receptor mSSTR2; conditions: cloned mouse receptor expressed on COS and CHO cells
T1 construct: expressed in transfected cells; host or cells: COS and CHO cells
Procedure: (§2) In vitro Bioassay: The effects of the various somatostatin analogs are tested in vitro for their ability to bind to isolated cloned receptors expressed on COS and CHO cells.
(§3) Five such receptor subtypes termed SSTR1 through SSTR5, have been cloned and are reported and described in Raynor et al., Molecular Pharmacology, 43, 838-844 (1993) and in Raynor et al., Molecular Pharmacology, 44, 385-392 (1993).

mSSTR3 = target: T2, mSSTR3 (Mus musculus, UniProt P30935); assay: inhibition of radioligand binding to cloned SRIF receptor mSSTR3; conditions: cloned mouse receptor expressed on COS and CHO cells
T2 construct: expressed in transfected cells; host or cells: COS and CHO cells
Procedure: as §2, §3

mSSTR1 = target: T3, mSSTR1 (Mus musculus, UniProt P30873); assay: inhibition of radioligand binding to cloned SRIF receptor mSSTR1; conditions: cloned mouse receptor expressed on COS and CHO cells
T3 construct: expressed in transfected cells; host or cells: COS and CHO cells
Procedure: as §2, §3

ovulation in female rats = assay: standard in vivo rat anti-ovulation test; set-up: species or system Sprague-Dawley rats; conditions: injected at about noon on the day of proestrus
Procedure: as §1

T1 sequence (P30875 whole entry): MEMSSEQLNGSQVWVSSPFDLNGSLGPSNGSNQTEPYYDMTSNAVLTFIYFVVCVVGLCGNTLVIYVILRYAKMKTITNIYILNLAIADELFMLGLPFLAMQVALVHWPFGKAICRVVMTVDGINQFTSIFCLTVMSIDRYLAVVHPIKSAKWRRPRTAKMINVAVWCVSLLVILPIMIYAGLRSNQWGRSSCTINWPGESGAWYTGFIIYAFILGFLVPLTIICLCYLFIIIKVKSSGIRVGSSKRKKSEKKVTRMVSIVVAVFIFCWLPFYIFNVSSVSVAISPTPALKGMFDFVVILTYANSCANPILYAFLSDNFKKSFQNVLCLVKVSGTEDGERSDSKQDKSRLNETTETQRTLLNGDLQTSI
T3 sequence (P30873 whole entry): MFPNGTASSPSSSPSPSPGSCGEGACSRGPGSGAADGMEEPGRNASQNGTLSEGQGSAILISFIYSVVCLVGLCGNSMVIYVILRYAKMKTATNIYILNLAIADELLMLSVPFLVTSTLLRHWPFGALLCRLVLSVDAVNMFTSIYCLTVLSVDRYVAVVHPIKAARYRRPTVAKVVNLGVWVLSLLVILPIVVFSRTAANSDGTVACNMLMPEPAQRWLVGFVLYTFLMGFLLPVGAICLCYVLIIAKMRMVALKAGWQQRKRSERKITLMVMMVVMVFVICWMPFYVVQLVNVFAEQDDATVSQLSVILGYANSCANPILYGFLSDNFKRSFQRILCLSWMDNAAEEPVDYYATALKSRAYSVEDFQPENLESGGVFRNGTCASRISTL
T2 sequence (P30935 whole entry): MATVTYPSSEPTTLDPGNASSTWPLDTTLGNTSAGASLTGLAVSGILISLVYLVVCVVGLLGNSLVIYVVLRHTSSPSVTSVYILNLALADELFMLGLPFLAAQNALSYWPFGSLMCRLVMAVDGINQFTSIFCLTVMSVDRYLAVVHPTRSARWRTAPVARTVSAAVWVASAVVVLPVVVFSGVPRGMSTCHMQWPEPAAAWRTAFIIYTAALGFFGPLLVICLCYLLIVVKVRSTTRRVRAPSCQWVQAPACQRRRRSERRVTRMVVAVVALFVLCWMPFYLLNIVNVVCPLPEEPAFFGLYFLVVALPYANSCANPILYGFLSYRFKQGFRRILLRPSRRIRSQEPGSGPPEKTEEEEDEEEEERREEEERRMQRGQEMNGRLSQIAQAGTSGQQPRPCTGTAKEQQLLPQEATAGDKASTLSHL

Row | Compound | IC50 (mSSTR2) [nM] | IC50 (mSSTR1) | rats ovulating out of rats treated (ovulation in female rats; dosage 5 μg) | also measured
1 | CC(=O)Nc1ccc(C[C@H](NC(=O)[C@H](CO)NC(=O)C(NC(=O)c2cccnc2)NC(=O)[C@@H](Cc2ccc(Cl)cc2)NC(=O)[C@@H](Cc2ccc3ccccc3c2)NC(C)=O)C(=O)N[C@H](Cc2ccc(NC(C)=O)cc2)C(=O)N[C@@H](CC(C)C)C(=O)N[C@@H](CCCCNC(C)C)C(=O)N2CCC[C@H]2C(=O)N[C@H](C)C(N)=O)cc1 (single isomer, unassigned) [Betide No. 1, [Ac-β-D-2NAL^1, (4Cl)D-Phe^2, D/L Agl(nicotinoyl)^3, Aph(Ac)^5, D-Aph(Ac)^6, ILys^8, D-Ala^10]-GnRH] |  |  |  | tolerance and gelling at the point of injection [1]: very well tolerated, with no significant gelling at the point of injection being detectable
2 | CC(=O)Nc1ccc(C[C@H](NC(=O)[C@H](CO)NC(=O)[C@@H](Cc2cccnc2)NC(=O)[C@@H](Cc2ccc(Cl)cc2)NC(=O)[C@@H](Cc2ccc3ccccc3c2)NC(C)=O)C(=O)N[C@H](Cc2ccc(NC(C)=O)cc2)C(=O)N[C@@H](CC(C)C)C(=O)N[C@@H](CCCCNC(C)C)C(=O)N2CCC[C@H]2C(=O)N[C@H](C)C(N)=O)cc1 [Acyline, Ac-β-D-2NAL-(4Cl)D-Phe-D-3PAL-Ser-Aph(Ac)D-Aph(Ac)-Leu-ILys-Pro-D-Ala-NH2, reference compound] (Ac-[d2Nal][dPhe(4-Cl)][d3Pal]S[Phe(4-NH2)](Ac)[dPhe(4-NH2)](Ac)L[Lys(iPr)]P[dA]-NH2) |  |  |  | retention using RP-HPLC (hydrophilicity) ([2]; gradient 40% to 75% Buffer B over 30 minutes, Buffer A TEAP pH 7.3, Buffer B 60% CH3CN and 40% Buffer A): 24.1 min
3 | C[C@@H](O)[C@@H]1NC(=O)[C@H](CCCCN)NC(=O)C(NC(=O)c2ccc3ccccc3c2)NC(=O)[C@H](Cc2ccccc2)NC(=O)[C@H](Cc2ccccc2)NC(=O)[C@@H](N)CSSC[C@@H](C(=O)O)NC(=O)[C@H](Cc2ccccc2)NC1=O (stereo partly drawn) [Betide No. 7, (cyclo 1-8)H-Cys-Phe-Phe-(2-naphthylamido)Gly-Lys-Thr-Phe-Cys-OH] | > 1000 | > 1000 nM |  | IC50 (mSSTR3): > 1000 nM
4 | C[C@@H](O)[C@@H]1NC(=O)[C@H](CCCCN)NC(=O)C(N(C)C(=O)c2ccc3ccccc3c2)NC(=O)[C@H](Cc2ccccc2)NC(=O)[C@H](Cc2ccccc2)NC(=O)[C@@H](N)CSSC[C@@H](C(=O)O)NC(=O)[C@H](Cc2ccccc2)NC1=O (stereo partly drawn) [Betide No. 7A, (cyclo 1-8)H-Cys-Phe-Phe-(β-methyl-γ-2-naphthyl)D/L(amido)Gly-Lys-Thr- Phe-Cys-OH] | > 1000 | > 1000 nM and 600 nM |  | 
5 | C[C@@H](O)[C@@H]1NC(=O)C(NC(=O)CCN)NC(=O)[C@@H](Cc2c[nH]c3ccccc23)NC(=O)[C@H](Cc2ccccc2)NC(=O)[C@H](Cc2ccccc2)NC(=O)[C@@H](N)CSSC[C@@H](C(=O)O)NC(=O)[C@H](Cc2ccccc2)NC1=O (stereo partly drawn) [Betide No. 8, (cyclo 1-8)H-Cys-Phe-Phe-D-Trp-γ-(2-aminoethyl)amido-glycine-Thr-Phe-Cys-OH] | > 1000 | > 1000 nM |  | IC50 (mSSTR3): > 1000 nM
6 | Ac-β-D-2NAL-(4Cl)D-Phe-D-3PAL-Ser-(4-Acetyl-amino-benzyl)D/L-amidoGly-D-Aph(acetyl)-Leu-Lys(isopropyl)-Pro-D-Ala-NH2 [Betide No. 4] |  |  | 2 out of 8 | 
7 | Ac-β-D-2NAL-(4Cl)D-Phe-D-3PAL-Ser-Aph(acetyl)-γ-(4-acetamidophenyl)D/L-amidoGly-Leu-Lys (isopropyl)-Pro-D-Ala-NH2 [Betide No. 5] |  |  | 1 out of 8 | rats ovulating out of rats treated (ovulation in female rats; dosage 2.5 μg): 2 out of 4
8 | Ac-β-D-2NAL-(4Cl)D-Phe-D-3PAL-Ser-γ-(4-hydroxyphenyl)D/L-amidoGly-D-Aph(acetyl)-Leu-Lys(isopropyl)-Pro-D-Ala-NH2 [Betide No. 4A] |  |  | 2 out of 16 | 
9 | Ac-β-D-2NAL-(4Cl)D-Phe-D-(3-pyridyl)Ala-Ser-Aph(acetyl)-D-Aph(acetyl)-D/L-Agl(Acetyl)-Lys(isopropyl)-Pro-D-Ala-NH2 [Betide No. 2] |  |  | 5 out of 8 | hydrophilicity compared to Acyline ([2]; RP-HPLC): more hydrophilic than Acyline; rats ovulating out of rats treated (ovulation in female rats; dosage 10 μg): 0 out of 8
10 | [Ac-βCH3 -D-2NAL^1, 4ClD-Phe^2, D-3PAL^3, Aph(atz)^5, D-Aph(atz)^6, ILys^8, D-Ala^10 ]-GnRH [E stereoisomer] |  |  |  | rats ovulating out of rats treated (ovulation in female rats; dosage 1.0 μg): partially active; rats ovulating out of rats treated (ovulation in female rats; dosage 2.5 μg): fully active
